{"source": "ChEMBL document CHEMBL1201862", "about": "“PubChem BioAssay data set” (2004)", "key": {"[1]": {"target": "Intestinal-type alkaline phosphatase (Mus musculus, UniProt P24822)", "assay": "PubChem AID 488875", "assay_type": "functional"}, "Streptococcus": {"test_system": "Streptococcus", "assay": "GAS UMAA2166 growth inhibition – luminescence, BacTiterGlo, counter-screen for streptokinase expression inhibitor project, dose response (AID 1915);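 further: potency for reduction of bacterial viability or growth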", "assay_type": "functional, organism-based"}, "[2]": {"target": "T1, Intestinal-type alkaline phosphatase (Homo sapiens, UniProt P09923)", "T1 sequence (P09923 whole entry)": "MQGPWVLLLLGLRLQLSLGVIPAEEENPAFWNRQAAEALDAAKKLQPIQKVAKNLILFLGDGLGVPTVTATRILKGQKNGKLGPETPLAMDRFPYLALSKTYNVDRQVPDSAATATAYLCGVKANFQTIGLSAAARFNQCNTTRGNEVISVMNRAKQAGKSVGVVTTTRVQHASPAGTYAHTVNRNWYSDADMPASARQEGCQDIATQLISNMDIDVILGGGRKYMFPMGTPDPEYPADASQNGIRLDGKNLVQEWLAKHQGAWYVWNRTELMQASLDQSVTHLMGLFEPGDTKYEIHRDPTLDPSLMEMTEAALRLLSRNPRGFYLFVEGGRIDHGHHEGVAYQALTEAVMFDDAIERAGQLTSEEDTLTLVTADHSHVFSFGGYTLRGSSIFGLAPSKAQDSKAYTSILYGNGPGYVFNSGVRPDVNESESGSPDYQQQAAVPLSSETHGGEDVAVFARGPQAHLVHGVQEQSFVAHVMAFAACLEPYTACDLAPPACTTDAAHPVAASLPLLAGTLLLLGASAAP", "assay": "human intestinal alkaline phosphatase activators, dose response, biochemical, luminescence, uHTS hits (AID 463120)", "assay_type": "functional"}, "[3]": {"test_system": "Streptococcus sp. 'group A'", "assay": "Streptococcus pyogenes SK(-)GAS viability under kanamycin – luminescence, BacTiterGlo, confirmation, counter-screen for streptokinase expression inhibitor project, dose response (AID 1900)", "assay_type": "functional, organism-based"}, "[4]": {"target": "NACHT, LRR and PYD domains-containing protein 3 (Homo sapiens, UniProt Q96P20)", "sequence (Q96P20 whole entry, the tested form may be a part)": "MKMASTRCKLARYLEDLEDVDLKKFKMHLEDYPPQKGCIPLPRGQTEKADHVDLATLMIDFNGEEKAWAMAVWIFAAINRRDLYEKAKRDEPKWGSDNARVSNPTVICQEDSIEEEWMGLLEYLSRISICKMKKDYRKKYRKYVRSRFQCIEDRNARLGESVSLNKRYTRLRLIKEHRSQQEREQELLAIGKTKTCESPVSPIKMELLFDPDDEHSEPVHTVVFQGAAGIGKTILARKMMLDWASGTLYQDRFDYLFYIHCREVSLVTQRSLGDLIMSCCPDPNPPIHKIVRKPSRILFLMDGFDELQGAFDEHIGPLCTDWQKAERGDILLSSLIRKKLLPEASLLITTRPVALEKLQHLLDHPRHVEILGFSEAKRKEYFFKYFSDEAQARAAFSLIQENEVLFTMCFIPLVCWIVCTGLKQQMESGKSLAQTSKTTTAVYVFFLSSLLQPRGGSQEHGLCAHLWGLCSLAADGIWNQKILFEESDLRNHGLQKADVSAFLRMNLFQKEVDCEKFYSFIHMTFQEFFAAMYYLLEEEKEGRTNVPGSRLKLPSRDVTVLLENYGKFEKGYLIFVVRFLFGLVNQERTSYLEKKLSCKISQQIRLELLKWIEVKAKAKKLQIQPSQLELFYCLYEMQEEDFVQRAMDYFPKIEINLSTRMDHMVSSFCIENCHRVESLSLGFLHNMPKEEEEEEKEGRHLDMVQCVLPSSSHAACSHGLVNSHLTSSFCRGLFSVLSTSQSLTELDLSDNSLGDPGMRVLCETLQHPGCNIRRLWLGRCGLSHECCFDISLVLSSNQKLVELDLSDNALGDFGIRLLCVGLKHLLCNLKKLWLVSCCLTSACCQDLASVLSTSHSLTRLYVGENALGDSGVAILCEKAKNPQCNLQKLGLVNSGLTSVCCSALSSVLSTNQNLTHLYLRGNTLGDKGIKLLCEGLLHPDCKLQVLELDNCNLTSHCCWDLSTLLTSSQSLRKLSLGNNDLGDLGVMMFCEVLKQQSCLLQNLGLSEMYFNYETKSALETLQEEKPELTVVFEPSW", "assay": "NALP3 inhibitors in yeast, dose response, luminescent (AID 488799)", "assay_type": "functional"}, "[5]": {"target": "T1, Intestinal-type alkaline phosphatase", "assay": "activation of human intestinal alkaline phosphatase – biochemical, luminescent, uHTS hits, set 2, dose response (AID 488817)", "assay_type": "functional"}, "Nonstructural protein 1": {"target": "Nonstructural protein 1 (Influenza A virus, UniProt Q194T2)", "sequence (Q194T2 whole entry)": "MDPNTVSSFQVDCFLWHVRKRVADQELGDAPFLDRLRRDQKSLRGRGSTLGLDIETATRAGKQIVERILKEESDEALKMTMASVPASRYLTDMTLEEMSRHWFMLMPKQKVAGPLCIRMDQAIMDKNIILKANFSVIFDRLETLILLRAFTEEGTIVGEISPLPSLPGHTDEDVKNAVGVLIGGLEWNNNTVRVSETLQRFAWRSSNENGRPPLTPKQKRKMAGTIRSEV", "assay_type": "functional, Influenza A virus (A/California/07/2009(H1N1))"}, "[6]": {"target": "T2, Alkaline phosphatase, tissue-nonspecific isozyme (Homo sapiens, UniProt P05186)", "T2 sequence (P05186 whole entry)": "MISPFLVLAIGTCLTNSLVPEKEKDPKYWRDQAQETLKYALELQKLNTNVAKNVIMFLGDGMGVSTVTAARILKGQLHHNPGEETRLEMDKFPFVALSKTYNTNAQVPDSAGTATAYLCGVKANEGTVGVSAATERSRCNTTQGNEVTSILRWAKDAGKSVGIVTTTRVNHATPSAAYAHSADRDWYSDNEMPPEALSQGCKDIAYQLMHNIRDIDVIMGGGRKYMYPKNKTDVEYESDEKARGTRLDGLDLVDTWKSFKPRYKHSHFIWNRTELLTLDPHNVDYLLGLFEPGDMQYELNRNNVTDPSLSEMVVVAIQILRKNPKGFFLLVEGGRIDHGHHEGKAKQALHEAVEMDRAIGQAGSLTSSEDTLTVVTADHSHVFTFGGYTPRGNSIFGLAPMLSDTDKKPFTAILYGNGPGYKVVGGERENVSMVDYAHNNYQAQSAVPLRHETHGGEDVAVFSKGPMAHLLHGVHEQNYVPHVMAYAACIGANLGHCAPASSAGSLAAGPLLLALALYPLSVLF", "assay": "activation of tissue-nonspecific alkaline phosphatase – biochemical, TNAP isozyme, human IAP uHTS hits, selectivity assay for human IAP activator project, dose response (AID 488886);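 further: potency of compounds raising TNAP activity as a selectivity check on IAP activators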", "assay_type": "functional"}, "Protein S100-A4": {"target": "Protein S100-A4 (Homo sapiens, UniProt P26447)", "sequence (P26447 whole entry)": "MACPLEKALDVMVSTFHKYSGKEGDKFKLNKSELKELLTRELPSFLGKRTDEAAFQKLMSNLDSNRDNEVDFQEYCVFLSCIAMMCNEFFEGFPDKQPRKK", "assay": "human S100A4 peptide interaction inhibition curves – biochemical, fluorescence polarization, cherry-picked hits, dose response (AID 687001)", "assay_type": "functional"}, "HEK293 [7]": {"test_system": "HEK293", "assay": "membrane integrity loss in HEK cells – cell-based, fluorescence, cytotoxicity control for IDE activator project, dose response (AID 588440);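 further: cytotoxicity by LDH release measuring loss of membrane integrity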", "assay_type": "functional", "conditions": "Homo sapiens"}, "ORF 73": {"target": "ORF 73 (Human herpesvirus 8, UniProt O40947)", "sequence (O40947 whole entry)": "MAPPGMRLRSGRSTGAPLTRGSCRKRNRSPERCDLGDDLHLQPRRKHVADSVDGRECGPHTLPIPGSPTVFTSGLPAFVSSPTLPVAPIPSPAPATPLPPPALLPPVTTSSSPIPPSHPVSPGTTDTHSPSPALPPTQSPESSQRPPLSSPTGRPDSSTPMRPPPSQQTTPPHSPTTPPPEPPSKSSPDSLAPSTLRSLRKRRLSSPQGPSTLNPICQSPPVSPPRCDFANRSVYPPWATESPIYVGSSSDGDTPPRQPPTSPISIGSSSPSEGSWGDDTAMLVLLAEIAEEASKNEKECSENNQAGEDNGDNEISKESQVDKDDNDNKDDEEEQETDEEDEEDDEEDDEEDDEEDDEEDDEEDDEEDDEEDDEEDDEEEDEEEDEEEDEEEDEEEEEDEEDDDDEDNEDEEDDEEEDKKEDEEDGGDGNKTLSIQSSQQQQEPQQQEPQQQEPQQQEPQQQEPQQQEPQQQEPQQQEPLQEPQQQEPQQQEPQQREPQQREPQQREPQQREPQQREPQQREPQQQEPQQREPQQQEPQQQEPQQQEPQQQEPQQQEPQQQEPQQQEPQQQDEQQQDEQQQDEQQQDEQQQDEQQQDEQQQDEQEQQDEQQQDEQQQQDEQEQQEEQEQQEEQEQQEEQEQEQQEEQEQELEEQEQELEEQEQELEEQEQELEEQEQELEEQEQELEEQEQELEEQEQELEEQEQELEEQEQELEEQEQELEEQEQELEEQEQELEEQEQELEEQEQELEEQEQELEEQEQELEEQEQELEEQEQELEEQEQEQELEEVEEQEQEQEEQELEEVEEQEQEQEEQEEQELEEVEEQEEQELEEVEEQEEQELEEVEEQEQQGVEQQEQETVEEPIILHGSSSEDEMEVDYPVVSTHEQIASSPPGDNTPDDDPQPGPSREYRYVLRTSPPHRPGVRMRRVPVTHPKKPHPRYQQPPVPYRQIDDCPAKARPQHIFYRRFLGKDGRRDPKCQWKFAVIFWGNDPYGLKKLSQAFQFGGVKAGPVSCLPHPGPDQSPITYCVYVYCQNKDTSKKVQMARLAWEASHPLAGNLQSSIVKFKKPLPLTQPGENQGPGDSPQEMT", "assay": "KSHV LANA DNA-binding disruption – biochemical, fluorescence polarization, cherry-picked samples, dose response (AID 504725);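 further: fluorescence polarization of a labeled DNA duplex reporting LANA DNA binding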", "parameters": "species or system Human gammaherpesvirus 8"}, "fMet-Leu-Phe receptor": {"target": "T3, fMet-Leu-Phe receptor (Homo sapiens, UniProt P21462)", "T3 sequence (P21462 whole entry)": "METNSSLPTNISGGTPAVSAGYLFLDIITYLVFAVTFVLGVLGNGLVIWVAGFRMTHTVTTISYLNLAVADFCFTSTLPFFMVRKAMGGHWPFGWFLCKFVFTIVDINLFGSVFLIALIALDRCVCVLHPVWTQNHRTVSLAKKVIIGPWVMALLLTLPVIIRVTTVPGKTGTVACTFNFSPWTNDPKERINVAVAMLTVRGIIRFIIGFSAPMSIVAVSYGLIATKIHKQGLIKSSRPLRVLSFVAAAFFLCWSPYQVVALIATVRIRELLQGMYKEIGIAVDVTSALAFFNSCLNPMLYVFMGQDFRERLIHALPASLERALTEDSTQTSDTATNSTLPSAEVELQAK", "assay": "formyl peptide receptor binders – dose response (AID 519)", "assay_type": "functional"}, "Insulin-degrading enzyme [8]": {"target": "T4, Insulin-degrading enzyme (Homo sapiens, UniProt P14735)", "T4 sequence (P14735 whole entry)": "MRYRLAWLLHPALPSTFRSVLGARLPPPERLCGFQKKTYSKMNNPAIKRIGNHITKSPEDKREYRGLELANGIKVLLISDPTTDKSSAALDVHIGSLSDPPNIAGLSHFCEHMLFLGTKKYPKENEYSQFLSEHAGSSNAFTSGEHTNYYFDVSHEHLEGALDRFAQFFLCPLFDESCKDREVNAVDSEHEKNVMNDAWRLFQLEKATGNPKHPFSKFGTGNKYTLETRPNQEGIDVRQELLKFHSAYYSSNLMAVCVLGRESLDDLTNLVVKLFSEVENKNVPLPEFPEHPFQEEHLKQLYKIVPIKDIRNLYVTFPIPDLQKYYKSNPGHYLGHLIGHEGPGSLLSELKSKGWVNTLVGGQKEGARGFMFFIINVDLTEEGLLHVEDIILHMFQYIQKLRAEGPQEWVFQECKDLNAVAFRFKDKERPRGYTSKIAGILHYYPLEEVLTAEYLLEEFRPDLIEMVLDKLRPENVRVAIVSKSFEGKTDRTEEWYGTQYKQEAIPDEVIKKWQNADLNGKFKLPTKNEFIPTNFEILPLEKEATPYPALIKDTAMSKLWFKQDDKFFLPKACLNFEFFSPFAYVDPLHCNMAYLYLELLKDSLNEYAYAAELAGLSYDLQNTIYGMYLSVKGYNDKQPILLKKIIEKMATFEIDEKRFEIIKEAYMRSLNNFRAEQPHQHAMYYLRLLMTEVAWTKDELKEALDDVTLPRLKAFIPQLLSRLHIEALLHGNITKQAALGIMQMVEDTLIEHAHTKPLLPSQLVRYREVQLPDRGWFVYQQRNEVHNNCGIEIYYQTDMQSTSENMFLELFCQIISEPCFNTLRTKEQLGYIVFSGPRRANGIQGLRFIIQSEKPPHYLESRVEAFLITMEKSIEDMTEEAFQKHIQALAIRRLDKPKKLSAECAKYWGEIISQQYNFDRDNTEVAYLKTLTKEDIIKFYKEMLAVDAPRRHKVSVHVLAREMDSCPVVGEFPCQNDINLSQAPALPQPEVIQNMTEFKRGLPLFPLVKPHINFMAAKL", "assay": "recombinant IDE activation, cell-free – biochemical, fluorescence polarization, counter-screen for IDE activator project, dose response (AID 588681)"}, "HeLa": {"test_system": "HeLa", "assay": "viability loss in HeLa cells – cell-based, 24 h, cherry-picked samples, cytotoxicity control, dose response (AID 504726)", "assay_type": "functional", "conditions": "Homo sapiens"}, "Insulin-degrading enzyme [9]": {"target": "T4, Insulin-degrading enzyme", "assay": "cellular IDE activation of Abeta substrate cleavage – fluorescence polarization, HEK cells, dose response (AID 588439)", "assay_type": "functional, cell-based"}, "[10]": {"target": "Aryl hydrocarbon receptor (Homo sapiens, UniProt P35869)", "sequence (P35869 whole entry)": "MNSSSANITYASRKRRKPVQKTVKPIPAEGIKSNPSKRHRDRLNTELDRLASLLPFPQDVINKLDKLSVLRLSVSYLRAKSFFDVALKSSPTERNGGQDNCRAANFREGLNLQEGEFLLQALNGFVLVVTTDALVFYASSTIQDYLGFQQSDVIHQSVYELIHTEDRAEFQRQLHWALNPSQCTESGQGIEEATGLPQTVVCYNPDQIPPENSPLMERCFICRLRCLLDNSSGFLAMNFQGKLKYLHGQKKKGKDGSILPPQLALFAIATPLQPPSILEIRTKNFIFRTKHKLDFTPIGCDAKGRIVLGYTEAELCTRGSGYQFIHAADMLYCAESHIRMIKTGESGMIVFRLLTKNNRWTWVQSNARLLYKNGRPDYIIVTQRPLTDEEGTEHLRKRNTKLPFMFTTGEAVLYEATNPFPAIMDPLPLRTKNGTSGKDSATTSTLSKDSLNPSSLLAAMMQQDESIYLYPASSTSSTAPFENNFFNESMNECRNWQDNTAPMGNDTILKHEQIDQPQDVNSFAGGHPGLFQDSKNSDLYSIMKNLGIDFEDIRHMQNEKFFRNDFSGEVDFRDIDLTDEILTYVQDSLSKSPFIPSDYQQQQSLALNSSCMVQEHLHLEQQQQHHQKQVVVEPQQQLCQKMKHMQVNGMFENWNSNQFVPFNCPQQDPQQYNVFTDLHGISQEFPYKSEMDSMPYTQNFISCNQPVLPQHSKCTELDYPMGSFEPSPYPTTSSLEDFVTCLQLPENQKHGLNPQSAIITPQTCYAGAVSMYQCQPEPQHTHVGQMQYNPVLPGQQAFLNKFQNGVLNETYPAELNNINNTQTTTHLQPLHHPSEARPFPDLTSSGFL", "conditions": "Potency"}, "Paired box protein Pax-8": {"target": "Paired box protein Pax-8 (Homo sapiens, UniProt Q06710)", "sequence (Q06710 whole entry)": "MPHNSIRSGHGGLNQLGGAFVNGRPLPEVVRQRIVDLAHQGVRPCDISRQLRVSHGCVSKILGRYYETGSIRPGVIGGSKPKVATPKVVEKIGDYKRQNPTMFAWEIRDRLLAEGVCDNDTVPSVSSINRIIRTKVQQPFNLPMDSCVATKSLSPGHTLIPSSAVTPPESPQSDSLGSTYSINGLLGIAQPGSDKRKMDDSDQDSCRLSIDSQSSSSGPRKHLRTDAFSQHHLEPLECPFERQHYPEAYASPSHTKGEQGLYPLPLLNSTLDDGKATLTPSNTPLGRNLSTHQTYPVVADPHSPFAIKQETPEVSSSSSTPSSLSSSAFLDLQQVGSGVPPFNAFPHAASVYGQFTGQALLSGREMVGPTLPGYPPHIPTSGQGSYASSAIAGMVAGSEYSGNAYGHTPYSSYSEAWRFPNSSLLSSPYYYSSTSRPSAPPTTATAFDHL", "assay": "PAX8 transcriptional activity inhibition in RMG-I – RMG-I cells, luciferase, cherry-pick, dose response (AID 687027);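 further: luciferase reporter driven by Pax8 target thyroperoxidase promoter measured by SteadyGlo luminescence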", "assay_type": "functional, cell-based"}, "HEK293 [11]": {"test_system": "HEK293", "assay": "optical interference in Abeta FP readout, dose response, artefact control for IDE activator project, biochemical, fluorescence polarization (AID 588442)", "assay_type": "functional, cell-based", "conditions": "Homo sapiens"}, "14-3-3 protein gamma": {"target": "14-3-3 protein gamma (Homo sapiens, UniProt P61981)", "sequence (P61981 whole entry)": "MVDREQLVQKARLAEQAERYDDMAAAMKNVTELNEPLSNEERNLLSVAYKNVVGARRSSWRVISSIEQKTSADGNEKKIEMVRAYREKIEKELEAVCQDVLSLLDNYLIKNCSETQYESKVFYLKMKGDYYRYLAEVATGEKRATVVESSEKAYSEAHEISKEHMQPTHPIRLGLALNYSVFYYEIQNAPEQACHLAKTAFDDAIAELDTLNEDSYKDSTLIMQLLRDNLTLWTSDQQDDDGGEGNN", "assay": "modulators of 14-3-3 gamma client binding – dose response (AID 711)", "assay_type": "functional"}, "[12]": {"target": "Melanin-concentrating hormone receptor 1 (Homo sapiens, UniProt Q99705)", "sequence (Q99705 whole entry)": "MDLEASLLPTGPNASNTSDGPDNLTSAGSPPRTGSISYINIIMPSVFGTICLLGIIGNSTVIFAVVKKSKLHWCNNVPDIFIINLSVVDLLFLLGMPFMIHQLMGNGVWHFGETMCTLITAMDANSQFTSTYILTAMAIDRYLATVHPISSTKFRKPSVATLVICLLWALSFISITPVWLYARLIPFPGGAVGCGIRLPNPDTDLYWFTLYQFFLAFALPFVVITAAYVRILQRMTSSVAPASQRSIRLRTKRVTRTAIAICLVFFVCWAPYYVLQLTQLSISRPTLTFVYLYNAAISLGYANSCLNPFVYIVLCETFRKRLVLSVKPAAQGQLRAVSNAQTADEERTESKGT", "assay": "Late-stage fluorescence-based counterscreen for antagonists of the G-protein coupled receptor 7 (GPR7): cell-based dose response assay to identify antagonists of the melanin-concentrating hormone receptor 1 (MCHR1). [Related pubchem assays (depositor defined):AID1861, AID1880, AID1952, AID2148, AID2251, AID2257, AID485339]", "assay_type": "functional"}, "[13]": {"target": "Neuropeptides B/W receptor type 1 (Homo sapiens, UniProt P48145)", "assay": "human NPBW1 receptor blockade, IC50 – cell-based, fluorescence, dose response, late-stage follow-up (AID 463251)", "assay_type": "functional"}}, "note": "Counter-ions that a name gives are not always drawn. Active and inactive are the calls of the source.", "data": [{"compound": "O=C(NC(=S)NNC(=O)c1ccccc1O)c1ccc(F)cc1", "values": [{"measurement": "EC50", "setting": "[1]", "result": "> 100 µM (inactive)"}, {"measurement": "EC50", "setting": "Streptococcus", "result": "7.74 µM (active)"}, {"measurement": "EC50", "setting": "[2]", "result": "8.25 µM (active)"}, {"measurement": "EC50", "setting": "[3]", "result": "3.21 µM (active)"}, {"measurement": "IC50", "setting": "[4]", "result": "7.94 µM (active)"}, {"measurement": "EC50", "setting": "[5]", "result": "12.2 µM (active)"}, {"measurement": "IC50", "setting": "Nonstructural protein 1", "result": "12.2 µM (active)"}, {"measurement": "EC50", "setting": "[6]", "result": "12.4 µM (active)"}]}, {"compound": "COc1cccc2c1C(=O)c1c(O)c3c(c(O)c1C2=O)C[C@@](O)(C(C)=O)C[C@@H]3O[C@H]1C[C@H](N)[C@H](O)[C@H](C)O1", "note": "[DAUNORUBICIN HYDROCHLORIDE]", "values": [{"measurement": "AC50", "setting": "Protein S100-A4", "result": "0.235 µM (active)"}, {"measurement": "IC50", "setting": "HEK293 [7]", "result": "17.7 µM (inactive)"}, {"measurement": "AC50", "setting": "ORF 73", "result": "2.36 µM (active)"}, {"measurement": "Ki", "setting": "fMet-Leu-Phe receptor", "result": "> 66.7 µM (inactive)"}, {"measurement": "EC50", "setting": "Insulin-degrading enzyme [8]", "result": "> 54.7 µM (inactive)"}, {"measurement": "AC50", "setting": "HeLa", "result": "1.73 µM (active)"}, {"measurement": "IC50", "setting": "Nonstructural protein 1", "result": "32.7 µM (active)"}, {"measurement": "EC50", "setting": "Insulin-degrading enzyme [9]", "result": "> 54.7 µM (inactive)"}, {"measurement": "AC50", "setting": "[10]", "result": "12.6 µM (inconclusive)"}, {"measurement": "AC50", "setting": "Paired box protein Pax-8", "result": "1.55 µM (active)"}, {"measurement": "EC50", "setting": "HEK293 [11]", "result": "> 54.7 µM (inactive)"}, {"measurement": "IC50", "setting": "14-3-3 protein gamma", "result": "< 0.781 µM (active)"}]}, {"compound": "Cc1ccc(-n2ncc(Cl)c(Oc3ccc(C(F)(F)F)cc3)c2=O)cc1", "values": [{"measurement": "IC50", "setting": "[12]", "result": "5.5 µM (active)"}, {"measurement": "IC50", "setting": "[13]", "result": "2.2 µM (active)"}]}]}
